The text below walks through data of ChEMBL document CHEMBL6134860, “Discovery and optimization of a novel carboxamide scaffold with selective antimalarial activity” (Eur J Med Chem, 2025).

≈ marks a conversion by molar mass, not a printed value. Where only a bound is given, the exact number is not on record here.

Data set [1] deals with Plasmodium falciparum. Kind of data set: Antiplasmodial activity against Plasmodium falciparum strain NF54 assessed as 99% parasite clearance time in presence of 2% haematocrit and 0.5 % parasitemia at 10 times EC50 followed by media with compound exchanged daily measured after 2 weeks by standard hypoxanthine assay. It is filed as functional.
The test system of data set [2] is Plasmodium falciparum. Kind of data set: microbe, parasite or virus in culture. It is filed as functional, organism-based. Conditions: W2, 72 h, read-out: pEC50 (converted).
Data set [3] is described as follows: Metabolic stability in human liver microsomes assessed as half life.
Data set [4] can be described thus: Cytotoxicity against human HepG2 cells measured after 72 hrs by hoechst 33342 staining based imaging assay. It is filed as toxicity, cell-based.
Data set [5] can be described thus: Metabolic stability in rat hepatocytes assessed as half life.
Data set [6] can be described thus: Lipophilicity, logD of compound at pH 7.4. Particulars: buffer.
The nature of data set [7]: Metabolic stability in human liver microsomes assessed as apparent intrinsic clearance.
Data set [8] is described as follows: Metabolic stability in rat hepatocytes assessed as apparent intrinsic clearance measured per 10^6 cells.
Data set [9] in a line: Aqueous solubility of compound at pH 7.4. Conditions: buffer.

On to `CCc1nc(N)nc(N)c1-c1ccc(Cl)cc1` [PYRIMETHAMINE], for which the Time in the data set on Plasmodium falciparum [1] was found to be 25.9 h.
For the molecule `Cc1ccc(N(C)C(=O)c2ncn(-c3ccc(C)cc3)n2)cc1`, the EC50 with Plasmodium falciparum [2] was 1.74 µM. Further, the half-life is 11.1 min in data set [3] and < 7.5 min in [5]. In addition, the CC50 at 72 h in [4] (read-out: CC50) and in data set [4] (read-out: pCC50 (converted)) was > 10 µM in each case. The molecule also displayed a logD in data set [6] of 3.15. Further, in data set [7], the intrinsic clearance (microsomal CLint) is 125 µL/min/mg. Moreover, the “CLH(app)” value in data set [8] was > 92.4 µL/min.
For the molecule `Cc1ccc(-c2cncc(C(=O)N(C)c3ccc(Cl)cc3)c2)cc1`, the figures for the half-life in data set [3] and in [5] were 6.1 min and < 7.5 min, respectively. Besides, the CC50 at 72 h in data set [4] (read-out: CC50) and in data set [4] (read-out: pCC50 (converted)) was > 10 µM throughout. This molecule showed a logD in [6] of 4.32. Moreover, the microsomal CLint in data set [7] was 228 µL/min/mg. Besides, the “CLH(app)” value in data set [8] was > 92.4 µL/min.
Take `Cc1ccc(N(C)C(=O)c2ncn(-c3ccc(Cl)cc3)n2)cc1`: in the data set on Plasmodium falciparum [2], the EC50 is 0.562 µM. The half-life was 33.8 min in [3] and < 7.5 min in data set [5]. In [9], the solubility turned out to be 4.4 µM (≈ 1.44 µg/mL). The CC50 at 72 h in data set [4] (read-out: CC50) and in data set [4] (read-out: pCC50 (converted)) was > 10 µM throughout. This molecule registered a logD in [6] of 3.36. In data set [7], the microsomal CLint was found to be 41.1 µL/min/mg. Moreover, the “CLH(app)” value in [8] is > 92.4 µL/min.
